# According to ChEMBL document CHEMBL5537125, “Discovery of C-3 isoxazole substituted thiochromone S,S-dioxide derivatives as potent and selective inhibitors for monoamine oxidase B (MAO-B)” (Eur J Med Chem, 2024):
# Activity calls are given as the source filed them. The rule behind the calls is not given here.
# Assays:
# [1] = biological target: T1, Amine oxidase [flavin-containing] A (Homo sapiens, UniProt P21397); experiment: Inhibition of human recombinant MAO-A using tyramine as substrate incubated for 20 mins by fluorometric assay
# T1 sequence (P21397 whole entry): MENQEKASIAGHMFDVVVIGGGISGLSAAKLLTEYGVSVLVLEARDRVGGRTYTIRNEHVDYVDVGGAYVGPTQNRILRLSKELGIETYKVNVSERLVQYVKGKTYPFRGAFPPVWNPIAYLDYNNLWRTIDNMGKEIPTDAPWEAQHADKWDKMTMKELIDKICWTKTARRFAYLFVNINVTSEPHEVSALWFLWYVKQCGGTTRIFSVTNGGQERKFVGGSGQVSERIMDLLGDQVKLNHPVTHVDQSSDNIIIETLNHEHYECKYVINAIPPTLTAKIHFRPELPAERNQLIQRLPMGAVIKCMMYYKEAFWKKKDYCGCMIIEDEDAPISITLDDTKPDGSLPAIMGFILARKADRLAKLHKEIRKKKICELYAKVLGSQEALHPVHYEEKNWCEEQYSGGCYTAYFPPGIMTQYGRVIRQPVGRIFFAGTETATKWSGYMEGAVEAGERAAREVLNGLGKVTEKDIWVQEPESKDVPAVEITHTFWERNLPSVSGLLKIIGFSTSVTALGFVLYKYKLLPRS
# [2] = Cytotoxicity against differentiated human SH-SY5Y cells assessed as cell proliferation at 4 uM incubated for 24 hrs by MTT assay relative to control; assay type: toxicity, cell-based; conditions: read-out: Activity
# MCF7 = experiment: Antiproliferative activity against human MCF7 cells assessed as reduction in cell viability incubated for 24 hrs by MTT assay; assay type: functional, cell-based; conditions: MCF7, 24 h
# [3] = biological target: T2, Amine oxidase [flavin-containing] B (Homo sapiens, UniProt P27338); experiment: Inhibition of human recombinant MAO-B using tyramine as substrate incubated for 20 mins by fluorometric assay
# T2 sequence (P27338 whole entry): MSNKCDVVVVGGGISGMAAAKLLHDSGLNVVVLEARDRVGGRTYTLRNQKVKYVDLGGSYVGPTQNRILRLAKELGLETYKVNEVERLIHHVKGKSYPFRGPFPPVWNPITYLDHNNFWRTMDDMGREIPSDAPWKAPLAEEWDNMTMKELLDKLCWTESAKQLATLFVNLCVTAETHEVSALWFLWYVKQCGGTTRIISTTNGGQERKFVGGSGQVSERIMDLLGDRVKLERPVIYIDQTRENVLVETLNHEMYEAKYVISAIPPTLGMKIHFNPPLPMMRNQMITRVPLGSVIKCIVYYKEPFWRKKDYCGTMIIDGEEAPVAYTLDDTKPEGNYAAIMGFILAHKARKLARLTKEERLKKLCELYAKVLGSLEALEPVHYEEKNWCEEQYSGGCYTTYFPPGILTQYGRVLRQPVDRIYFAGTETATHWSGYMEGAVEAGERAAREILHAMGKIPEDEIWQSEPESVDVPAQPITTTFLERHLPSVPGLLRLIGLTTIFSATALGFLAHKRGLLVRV
# HepG2 [4] = experiment: Antiproliferative activity against human HepG2 cells assessed as reduction in cell viability at 0.5 to 128 uM incubated for 24 hrs by MTT assay; assay type: functional, cell-based; conditions: dose 0.5-128 µM
# SH-SY5Y [5] = experiment: Cytotoxicity against differentiated human SH-SY5Y cells assessed as reduction in cell viability by measuring MTT reduction at 4 uM incubated for 24 hrs by MTT assay relative to control; assay type: toxicity, cell-based
# [6] = n-Octanol/water partition coefficient, logP of the compound at pH 7.4 by HPLC analysis; assay type: physicochemical
# MGC-803 [7] = experiment: Antiproliferative activity against human MGC-803 cells assessed as reduction in cell viability at 0.5 to 128 uM incubated for 24 hrs by MTT assay; assay type: functional, cell-based; conditions: dose 0.5-128 µM
# VSMC [8] = experiment: Cytotoxicity against differentiated human VSMC cells assessed as reduction in cell viability at 0.5 to 4 uM incubated for 24 hrs by MTT assay; assay type: toxicity, cell-based; conditions: dose 0.5-4 µM
# SH-SY5Y [9] = experiment: Induction of ROS production in human SH-SY5Y cells assessed as increase in oxidative damage at 2 to 4 uM incubated for 24 hrs by DCFH-DA staining based fluorescence microscopic analysis; assay type: functional, cell-based; conditions: dose 2-4 µM
# HepG2 [10] = experiment: Antiproliferative activity against human HepG2 cells assessed as reduction in cell viability incubated for 24 hrs by MTT assay; assay type: functional, cell-based; conditions: HepG2, 24 h
# MGC-803 [11] = experiment: Antiproliferative activity against human MGC-803 cells assessed as reduction in cell viability incubated for 24 hrs by MTT assay; assay type: functional, cell-based; conditions: MGC-803, 24 h
# VSMC [12] = experiment: Cytotoxicity against human VSMC cells assessed as reduction in cell viability at 0.5 uM incubated for 24 hrs by MTT assay relative to control; assay type: toxicity, cell-based
# HCT-116 = experiment: Antiproliferative activity against human HCT-116 cells assessed as reduction in cell viability incubated for 24 hrs by MTT assay; assay type: functional, cell-based; conditions: HCT-116, 24 h
# [13] = biological target: T1, Amine oxidase [flavin-containing] A; experiment: Inhibition of human recombinant MAO-A using tyramine as substrate at 10 uM incubated for 20 mins by fluorometric assay relative to control
# [14] = Solubility of compound in phosphate buffer; assay type: physicochemical
# [15] = Solubility of compound in DMSO; assay type: physicochemical
# Homo sapiens = species: Homo sapiens; experiment: Selectivity index, ratio of IC50 for human recombinant MAO-A to IC50 for human recombinant MAO-B
# [16] = Cytotoxicity against differentiated human SH-SY5Y cells assessed as cell proliferation at 0.5 uM incubated for 24 hrs by MTT assay relative to control; assay type: toxicity, cell-based; conditions: read-out: Activity
# [17] = Selectivity index, ratio of IC50 for MAO-A (unknown origin) to IC50 for human recombinant MAO-B
# [18] = biological target: T2, Amine oxidase [flavin-containing] B; experiment: Inhibition of human MAO-B
structure (smiles),measurement,setting,value
O=c1c(-c2cc(-c3ccccc3C(F)(F)F)no2)csc2ccccc12,IC50,[1],21.2 µM
same,"viability at 24 h, 4 µM",[2],121%
same,IC50,MCF7,37.9 µM
same,IC50,[3],2 nM
same,Activity,HepG2 [4],inactive
same,Activity,SH-SY5Y [5],< 90%
same,logD,[6],4.37
same,Activity,MGC-803 [7],inactive
same,Activity,VSMC [8],Non-Toxic
COc1cccc(-c2cc(C3=CS(=O)(=O)c4ccccc4C3=O)on2)c1,Activity,SH-SY5Y [9],inactive
same,IC50,HepG2 [10],43.3 µM
same,IC50,MCF7,4.21 µM
same,IC50,MGC-803 [11],43 µM
same,Activity,VSMC [12],111%
same,IC50,HCT-116,47 µM
same,IC50,[3],5.1 nM
same,logD,[6],2.39
same,Activity,VSMC [8],Non-Toxic
same,inhibition at 10 µM,[13],1%
O=c1c(-c2cc(-c3ccc(Cl)cc3)no2)csc2ccccc12,solubility,[14],Insoluble
same,solubility,[15],Insoluble
O=c1c(-c2cc(-c3cccc(C(F)(F)F)c3)no2)csc2ccccc12,IC50,[1],161 µM
same,Ratio IC50,Homo sapiens,4580
same,IC50,[3],35.1 nM
same,logD,[6],3.71
O=C1C(c2cc(-c3ccc(C(F)(F)F)cc3)no2)=CS(=O)(=O)c2ccccc21,IC50,[3],31.8 nM
same,logD,[6],2.37
same,inhibition at 10 µM,[13],2.6%
Cc1cccc(-c2cc(C3=CS(=O)(=O)c4ccccc4C3=O)on2)c1,IC50,[3],98.2 nM
same,logD,[6],3.23
O=c1c(-c2cc(-c3ccc(C(F)(F)F)cc3)no2)csc2ccccc12,IC50,[1],85.4 µM
same,Ratio IC50,Homo sapiens,7580
same,IC50,[3],11.3 nM
same,logD,[6],2.55
Cc1ccccc1-c1cc(C2=CS(=O)(=O)c3ccccc3C2=O)on1,IC50,[3],137 nM
same,logD,[6],2.69
Cc1ccccc1-c1cc(-c2csc3ccccc3c2=O)on1,IC50,[3],109 nM
same,logD,[6],3.99
O=c1c(-c2cc(-c3cccc(Cl)c3)no2)csc2ccccc12,solubility,[14],Insoluble
same,solubility,[15],Insoluble
COc1cccc(-c2cc(-c3csc4ccccc4c3=O)on2)c1,solubility,[14],Insoluble
same,solubility,[15],Insoluble
O=c1c(-c2cc(-c3ccc(F)cc3)no2)csc2ccccc12,solubility,[14],Insoluble
same,solubility,[15],Insoluble
O=C1C(c2cc(-c3ccc(F)cc3)no2)=CS(=O)(=O)c2ccccc21,IC50,[3],149 nM
same,logD,[6],2.43
O=C1C(c2cc(-c3cccc(C(F)(F)F)c3)no2)=CS(=O)(=O)c2ccccc21,Activity,SH-SY5Y [9],inactive
same,IC50,HepG2 [10],83.2 µM
same,IC50,MCF7,5.82 µM
same,IC50,MGC-803 [11],39.6 µM
same,Activity,VSMC [12],113%
same,IC50,HCT-116,21.4 µM
same,IC50,[3],1.9 nM
same,Activity,SH-SY5Y [5],< 90%
same,logD,[6],3.39
same,Activity,VSMC [8],Non-Toxic
same,inhibition at 10 µM,[13],10%
O=c1c(-c2cc(-c3ccccc3)no2)csc2ccccc12,IC50,[3],1230 nM
same,logD,[6],3.72
O=C1C(c2cc(-c3cccc(F)c3)no2)=CS(=O)(=O)c2ccccc21,IC50,[3],440 nM
same,logD,[6],2.46
COc1ccc(-c2cc(-c3csc4ccccc4c3=O)on2)cc1,solubility,[14],Insoluble
same,solubility,[15],Insoluble
Cc1cccc(-c2cc(-c3csc4ccccc4c3=O)on2)c1,IC50,[3],530 nM
same,logD,[6],3.44
O=C1C(c2cc(-c3ccccc3C(F)(F)F)no2)=CS(=O)(=O)c2ccccc21,"viability at 24 h, 0.5 µM",[16],108%
same,IC50,HepG2 [10],99.3 µM
same,"viability at 24 h, 4 µM",[2],119%
same,IC50,MCF7,16 µM
same,IC50,MGC-803 [11],37.7 µM
same,IC50,HCT-116,52.1 µM
same,IC50,[3],2.3 nM
same,Activity,SH-SY5Y [5],< 90%
same,logD,[6],2.63
same,Activity,VSMC [8],Non-Toxic
same,inhibition at 10 µM,[13],3.8%
COc1ccc(-c2cc(C3=CS(=O)(=O)c4ccccc4C3=O)on2)cc1,"viability at 24 h, 0.5 µM",[16],105%
same,IC50,[1],64.4 µM
same,IC50,HepG2 [10],63.1 µM
same,"viability at 24 h, 4 µM",[2],120%
same,IC50,MCF7,6.02 µM
same,IC50,HCT-116,78.1 µM
same,IC50,[3],3.4 nM
same,Activity,SH-SY5Y [5],< 90%
same,logD,[6],2.62
same,Activity,MGC-803 [7],inactive
same,Activity,VSMC [8],Non-Toxic
O=C1C(c2cc(-c3ccc(Cl)cc3)no2)=CS(=O)(=O)c2ccccc21,IC50,[1],38.3 µM
same,IC50,HepG2 [10],55.9 µM
same,IC50,MCF7,3.77 µM
same,IC50,HCT-116,53.4 µM
same,IC50,[3],3.4 nM
same,Activity,SH-SY5Y [5],< 90%
same,logD,[6],1.82
same,Activity,MGC-803 [7],inactive
same,Activity,VSMC [8],Non-Toxic
Cc1ccc(C2=NOC(c3ccc(Cl)c(Cl)c3)C2)cc1 (stereo unspecified),Ratio IC50,Homo sapiens,> 8350
O=C1C(c2cc(-c3cccc(Cl)c3)no2)=CS(=O)(=O)c2ccccc21,IC50,[3],22.6 nM
same,logD,[6],4.17
O=C1C(c2cc(-c3ccccc3)no2)=CS(=O)(=O)c2ccccc21,IC50,[3],896 nM
same,logD,[6],3.26
O=c1c(-c2cc(-c3cccc(F)c3)no2)csc2ccccc12,solubility,[14],Insoluble
same,solubility,[15],Insoluble
Cc1ccc(-c2cc(-c3csc4ccccc4c3=O)on2)cc1,IC50,[3],62.2 nM
same,logD,[6],3.2
COc1ccc(-c2cc(-c3csc4ccccc4c3=O)[nH]n2)cc1,IC50,[3],18.5 nM
same,logD,[6],3.43
CC(=O)c1ccc(OCc2ccccc2)cc1O,Ratio IC50,[17],1190
same,IC50,[18],7 nM
Cc1ccc(-c2cc(C3=CS(=O)(=O)c4ccccc4C3=O)on2)cc1,IC50,[3],26.8 nM
same,logD,[6],2.77
